# Counter-ions that a name gives are not always drawn.
# What was measured:
# Test in all cases: Whole-cell patch-clamp block of mutant Kv1.5 current in HEK293 cells
# Assay type in all cases: cell-based
# Settings in all cases: 10 μM vernakalant
# [1] = target: T1, Kv1.5 A509G mutant channel (Homo sapiens, UniProt P22460, A509G)
# T1 construct: subcloned as a fragment back into full-length Kv1.5; expressed in transfected cells; host or cells: HEK293, transient transfection
# Text: (§1) Stable lines of HEK293 cells expressing Kv1.5, or transient transfection of mutant Kv1.5 channels were used in all experiments. Primers to generate mutant channels were synthesized by Integrated DNA Technologies, Inc. (Coralville, Iowa, USA), and mutants were generated using the Stratagene Quikchange kit (Stratagene, Calif., USA). The presence of the mutation was confirmed by DNA sequencing, and because of the size of the WT Kv1.5 clone, only the sequenced region harboring the targeted nucleotides was subcloned as a fragment back into full-length Kv1.5. Transient transfections were performed with HEK 293 cells plated at 20-30% confluency on sterile coverslips in 25 mm Petri dishes one day prior to transfection. 0.1-4 μg of ion channel DNA was incubated with 1 μg of eGFP DNA (to enable detection of transfected cells) and 2 μl of lipofectamine 2000 (Invitrogen) in 100 μl of Opti-MEM. This was added to the cells for overnight incubation after washing the media with 900 μl of MEM with 10% FBS.
# (§2) The cells were grown in Minimal Essential Medium (MEM) at 37° C. in an air/5% CO2 incubator. Media contained 10% bovine serum and 0.5 mg/ml geneticin for stable lines. On the day before recording, stably-expressing cells were washed with MEM, treated with trypsin/EGTA for one minute and plated on 25 mm^2 coverslips. All cell culture supplies were obtained from Invitrogen (Mississauga, ON, Canada).
# (§3) Control bath solution contained (in mM): 5 KCl, 135 NaCl, 2.8 sodium acetate, 1 MgCl2, 10 HEPES and 1 CaCl2, adjusted to pH 7.4 with NaOH. Patch pipettes contained (in mM): 130 KCl, 5 EGTA, 1 MgCl2, 10 HEPES, 4 Na2ATP, and 0.1 GTP, adjusted to pH 7.2 with KOH. […]
# (§4) Coverslips with adherent cells plated on the surface were placed in a superfusion chamber (volume 300 μl) containing the control bath solution at 22° C. […] To assess drug block, half-log escalating concentrations of drug were added to the flowing bath solution and current traces were recorded with 400 ms depolarizing pulses to +60 mV at a frequency of 0.1 Hz. […]
# [2] = target: T2, Kv1.5 V481L mutant channel (Homo sapiens, UniProt P22460, V481L)
# T2 construct: subcloned as a fragment back into full-length Kv1.5; expressed in transfected cells; host or cells: HEK293, transient transfection
# T2 sequence (P22460 whole entry V481L, the tested form may be a part): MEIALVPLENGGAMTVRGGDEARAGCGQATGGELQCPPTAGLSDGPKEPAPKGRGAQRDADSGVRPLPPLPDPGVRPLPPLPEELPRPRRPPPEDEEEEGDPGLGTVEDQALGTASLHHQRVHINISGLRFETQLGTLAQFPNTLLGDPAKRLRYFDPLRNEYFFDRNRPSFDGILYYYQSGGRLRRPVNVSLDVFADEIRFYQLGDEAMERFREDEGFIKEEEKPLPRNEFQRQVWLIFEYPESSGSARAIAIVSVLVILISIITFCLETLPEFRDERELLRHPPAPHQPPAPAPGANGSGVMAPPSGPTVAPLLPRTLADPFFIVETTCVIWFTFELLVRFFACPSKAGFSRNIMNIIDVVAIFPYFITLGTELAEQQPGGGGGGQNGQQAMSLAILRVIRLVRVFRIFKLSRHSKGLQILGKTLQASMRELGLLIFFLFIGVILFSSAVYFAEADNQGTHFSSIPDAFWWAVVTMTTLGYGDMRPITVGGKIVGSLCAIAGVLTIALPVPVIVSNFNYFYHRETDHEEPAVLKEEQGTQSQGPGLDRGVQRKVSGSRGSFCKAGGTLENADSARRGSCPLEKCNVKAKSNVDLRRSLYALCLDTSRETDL
# Text: as §1, §2, §3, §4
# [3] = target: T3, Kv1.5 V512L mutant channel (Homo sapiens, UniProt P22460, V512L)
# T3 construct: subcloned as a fragment back into full-length Kv1.5; expressed in transfected cells; host or cells: HEK293, transient transfection
# T3 sequence (P22460 whole entry V512L, the tested form may be a part): as the sequence (P22460 whole entry V481L, the tested form may be a part) above, with L481V, V512L counted along it
# Text: as §1, §2, §3, §4
# T1 sequence (P22460 whole entry A509G, the tested form may be a part): as the sequence (P22460 whole entry V481L, the tested form may be a part) above, with L481V, A509G counted along it
smiles,measurement,setting,value
"COc1ccc(CCO[C@@H]2CCCC[C@H]2N2CC[C@@H](O)C2)cc1OC [Vernakalant, 3-Pyrrolidinol, 1-[(1R,2R)-2-[2-(3,4-dimethoxyphenyl)ethoxy]cyclohexyl]-,hydrochloride, (3R)]",Fractional Block ± SEM,[1],0.33 ± 0.07
same,Fractional Block ± SEM,[2],0.36 ± 0.03
same,Fractional Block ± SEM,[3],0.56 ± 0.04

# Source: patent US20090053721A1, “VOLTAGE-GATED ION CHANNEL MUTANTS FOR USE IN IDENTIFYING ION CHANNEL MODULATING COMPOUNDS” (CARDIOME PHARMA CORP., priority 2007, published 2009)
